Assay results reported in patent publication US20120058948A1, “Collagen peptides as immune modulators” (priority 2006, published 2012).
“Also recorded” adds a separate entry of the source. Square brackets hold non-standard residues; d marks the D form. Ends that are not written are not given here. Hyp = O=C(O)[C@@H]1C[C@@H](O)CN1

Tested on: human peripheral blood monocytes (HPBMs) activated with LPS
Assay: LPS-induced IL-1β production (ELISA) from activated HPBMs incubated with LPS and peptide
Format: cell-based
Settings: for effect on LPS-induced IL-1β production from HPBMs: LPS 3.3×10^−7 M plus peptide 10^−7, 10^−8 or 10^−9 M, compared with LPS alone, FIG. 3; for effect on LPS-induced IL-1β production at all concentrations studied: all peptide concentrations studied (10^−7 to 10^−9 M), FIGS. 3B-D
Description: Samples (10 mg each) of peptide p1 (Lot #10055791, Genemed Synthesis Inc., San Francisco, Calif.), p2 (Lot #10059702, Genemed Synthesis Inc.) and p3 (Lot #10059701, Genemed Synthesis Inc.) were obtained with >98% purity. Each peptide was diluted with phosphate buffered saline (PBS, […], pH 7.2, 20012-043, Invitrogen Corp., Carlsbad, Calif.) yielding solutions of 10 mg/mL. The peptide solutions were incubated at 4° C. for 24 hours, then stored at −80° C. until required. Glucagon (G2044, Sigma-Aldrich, St. Louis, Mo.) was stored, defrosted and treated in an identical manner to p1, p2 and p3.
Human peripheral blood monocytes were isolated from whole blood supplied by a healthy […] as follows. A 45 mL sample was drawn using 3.2% sodium citrate vacuum tubes. Whole blood was then diluted with a 2.5 mM PBS solution (0.1M, […], Sterile, S02131, Teknova Inc., Hollister, Calif.) to form a solution having a 1:2 ratio of blood:PBS solution. Red blood cells were subsequently removed by density gradient separation using a 1:1 ratio of Histopaque-1077 (Sigma-Aldrich) and centrifuged for 30 minutes at 400×g at 25° C. The plasma layer was removed by aspiration, and the buffy layer, comprising lymphocytes, monocytes and platelets, was collected into two 50 mL conical tubes. To remove the excess histopaque, platelets and plasma, the cells were centrifuged at 250×g for an additional 10 minutes at 4° C. The supernatant was removed and the cells resuspended in 2.5 mM PBS sodium citrate and centrifuged again. The platelet-enriched supernatant was removed after the second wash, leaving a cell pellet in each of the two tubes.
The remainder of the monocyte isolation was carried out using a MS 130-041-201 column (MACS, Miltenyi Biotec, Bergisch Gladbach, Germany) and Human Monocyte Isolation Kit II (MACS, Miltenyi Biotec) as outlined by the manufacturer. The column was washed with 1 mL of 1% heat inactivated fetal bovine serum (1% HI-FBS, USA origin, sterile-filtered, cell culture tested, hybridoma tested, F2442 Sigma-Aldrich) in a PBS sodium citrate solution. The cell pellets were combined into one tube. The cell solution was centrifuged at 300×g at 4° C. and the supematant removed before adding 30 microliters of 1% HI-FBS, 20 microliters FCR blocking agent and 20 microliters monocyte biotin-antibody cocktail per 10^7 cells to the pellet. The tube was lightly agitated then chilled for 10 minutes at 4° C. Anti-biotin microbeads (40 microliters) and 30 microliters of additional 1% HI-FBS per 10^7 cells were added to each tube. The tube was vortexed for three to five seconds to mix, then set to chill at 4° C. for another 15 minutes.
After the incubation at 4° C., 2 mL of 1% HI-FBS were added, and the sample was centrifuged for 10 minutes at 300×g at 25° C. to remove excess antibodies and beads. The supernatant was removed and the pellet carefully re-suspended in 500 microliters of 1% HI-FBS. This cell solution was added to the column, and no further fluid was added until the flow of solution through the column had stopped. The tube and column were washed three times with 500 microliters of 1% HI-FBS, and the fluid was collected for cell culture. Subsequent fluorescence activated cell sorter (FACS) analysis of tissue culture samples confirmed a monocyte purity of >82%. Monocytes were seeded at 5×10^5 per well and cultured in 10% FBS RPMI 1640 and allowed to incubate at 37° C. in 5% CO2.
Because the peptides under investigation can spontaneously form triple-helical structures in solution, the peptides were heated to 90° C. for two minutes prior to introducing them to HPBM cultures to ensure that unfolded peptides, corresponding to the collagen-degradation products, were used for the experiments. The peptide solutions were then diluted with RPMI 1640 10% FBS at 37° C., yielding a final concentration of 1 microgram/mL. Serial dilutions of the peptide samples were performed to obtain the solutions at the desired concentration. […]

Sequence | effect on LPS-induced IL-1β production from HPBMs | effect on LPS-induced IL-1β production at all concentrations studied (LPS 3.3×10^−7 M) | effect on LPS-induced IL-1β production at a relatively high concentration of peptide (LPS 3.3×10^−7 M, relatively high peptide concentration (close to that in synovial fluid of RA patients), FIG. 3A/3D) | time at which elevated IL-1β levels began, peptide p1 relative to peptide p3 (LPS 3.3×10^−7 M plus peptide, sampling every four hours for 28 hours)
POGPOGPOGAOGLRGGAGPAGPOGPOGPOG (P[Hyp]GP[Hyp]GP[Hyp]GA[Hyp]GLRGGAGPAGP[Hyp]GP[Hyp]GP[Hyp]G; ends and bridges not checked) [peptide p3, models a relatively imino-poor but relatively rigid collagen segment near a gelatinase scissile bond, flanked by POG triplets] | additive effect; also recorded: greatest effect; also recorded: augmented | augment |  | 
HSQGTIFTSDYSKYLDSRRAQDFVQWLMNT [peptide p0, reference compound] | no significant effect |  | not statistically significant | 
POGPOGPOGPOGPOGPOGPOGPOGPOGPOG [peptide p1] | additive effect; also recorded: augmented | augment |  | later time
